Assay results reported in patent US7238689B2, “Isoxazoline derivative and herbicide comprising the same as active ingredient” (Ihara Chemical Industry Co., Ltd., priority 2001, dated 2007).

Columns and labels:
Format in all cases: in vivo
Parameters in all cases: scale not given here
[1] = system: Echinochloa oryzicola Vasing; test: Herbicidal effect by paddy field soil treatment; conditions: wettable powder, active ingredient 1000 g/ha, examined at the 21st day from the treatment
Procedure: (§1) A paddy field soil was filled in a plastic pot of 100 cm^2 and subjected to puddling. Then, seeds of Echinochloa oryzicola Vasing and Monochoria vaginalis (Murm. f.) Presl var. plantaginea (Roxb.) Solms-Laub. were sowed and water was filled in a depth of 3 cm. Next day, wettable powders produced in accordance with the Formulation 1 were diluted with water and dropped on the water surface. The application amount of each wettable powder was 1,000 g per 1 hectare in terms of the active ingredient. Then, breeding was made in a greenhouse, and the herbicidal effect of each wettable powder was examined at the 21st day from the treatment in accordance with the standard shown in Table 21.

[2] = system: Monochoria vaginalis (Murm. f.) Presl var. plantaginea (Roxb.) Solms-Laub.; test: Herbicidal effect by paddy field soil treatment; conditions: wettable powder, active ingredient 1000 g/ha, examined at the 21st day from the treatment
Procedure: as §1

[3] = system: Echinochloa crus-galli (L.) Beauv. var. crusgalli; test: Herbicidal effect by upland field soil treatment; conditions: active ingredient 1000 g/ha, examined at 21st day from treatment
Description: (§2) An upland field soil was filled in a plastic pot of 80 cm^2. Seeds of Echinochloa crus-galli (L.) Beauv. var. crusgalli and Setaria viridis (L.) Beauv. were sowed, followed by covering with the same soil. […] Then, breeding was made in a greenhouse, and the herbicidal effect of each wettable powder was examined at the 21st day from the treatment in accordance with the standard shown in Table 21.

[4] = system: Setaria viridis (L.) Beauv.; test: Herbicidal effect by upland field soil treatment; conditions: active ingredient 1000 g/ha, examined at 21st day from treatment
Description: as §2

SMILES: Cn1nc(-c2ccccc2)c(CS(=O)(=O)C2=NOC(C)(C)C2)c1Cl [3-0072]
- Herbicidal effect index, Echinochloa oryzicola Vasing [1]: 5
- Herbicidal effect index, Monochoria vaginalis (Burm. F.) Presl var. plantaginea (Roxb.) Solms-Laub. [2]: 5
- herbicidal effect (index per standard of Table 21), Echinochloa curs-galli (L.) Beauv. Var. crus-galli [3]: 5
- herbicidal effect (index per standard of Table 21), Setaria viridis (L.) Beauv. [4]: 5

SMILES: CC1(C)CC(S(=O)(=O)Cc2c(C(F)(F)F)nn(Cc3ccccc3)c2Cl)=NO1 [3-0087]
- Herbicidal effect index, Echinochloa oryzicola Vasing [1]: 5
- Herbicidal effect index, Monochoria vaginalis (Burm. F.) Presl var. plantaginea (Roxb.) Solms-Laub. [2]: 5
- herbicidal effect (index per standard of Table 21), Echinochloa curs-galli (L.) Beauv. Var. crus-galli [3]: 5
- herbicidal effect (index per standard of Table 21), Setaria viridis (L.) Beauv. [4]: 5

SMILES: Cn1c(CS(=O)(=O)C2=NOC(C)(C)C2)c(Cl)c2ccccc21 [10-0018]
- Herbicidal effect index, Echinochloa oryzicola Vasing [1]: 5
- Herbicidal effect index, Monochoria vaginalis (Burm. F.) Presl var. plantaginea (Roxb.) Solms-Laub. [2]: 5
- herbicidal effect (index per standard of Table 21), Echinochloa curs-galli (L.) Beauv. Var. crus-galli [3]: 5
- herbicidal effect (index per standard of Table 21), Setaria viridis (L.) Beauv. [4]: 5

SMILES: CC1(C)CC(S(=O)(=O)Cc2c(C(F)(F)F)nn(CS(C)(=O)=O)c2Cl)=NO1 [3-0130]
- Herbicidal effect index, Echinochloa oryzicola Vasing [1]: 5
- Herbicidal effect index, Monochoria vaginalis (Burm. F.) Presl var. plantaginea (Roxb.) Solms-Laub. [2]: 5
- herbicidal effect (index per standard of Table 21), Echinochloa curs-galli (L.) Beauv. Var. crus-galli [3]: 5
- herbicidal effect (index per standard of Table 21), Setaria viridis (L.) Beauv. [4]: 5

SMILES: CC1(C)CC(S(=O)(=O)Cc2c(C(F)(F)F)nn(-c3ncccn3)c2Cl)=NO1 [3-0173]
- Herbicidal effect index, Echinochloa oryzicola Vasing [1]: 5
- Herbicidal effect index, Monochoria vaginalis (Burm. F.) Presl var. plantaginea (Roxb.) Solms-Laub. [2]: 5
- herbicidal effect (index per standard of Table 21), Echinochloa curs-galli (L.) Beauv. Var. crus-galli [3]: 5
- herbicidal effect (index per standard of Table 21), Setaria viridis (L.) Beauv. [4]: 5

SMILES: Cn1nc(C(F)(F)F)c(CS(=O)(=O)C2=NOC(C)(C)C2)c1S(=O)(=O)c1ccccc1 [3-0070]
- Herbicidal effect index, Echinochloa oryzicola Vasing [1]: 5
- Herbicidal effect index, Monochoria vaginalis (Burm. F.) Presl var. plantaginea (Roxb.) Solms-Laub. [2]: 5
- herbicidal effect (index per standard of Table 21), Echinochloa curs-galli (L.) Beauv. Var. crus-galli [3]: 4
- herbicidal effect (index per standard of Table 21), Setaria viridis (L.) Beauv. [4]: 4

SMILES: Cn1nc(C(F)(F)F)c(CS(=O)(=O)C2=NOC(C)(C)C2)c1F [3-0041]
- Herbicidal effect index, Echinochloa oryzicola Vasing [1]: 5
- Herbicidal effect index, Monochoria vaginalis (Burm. F.) Presl var. plantaginea (Roxb.) Solms-Laub. [2]: 5
- herbicidal effect (index per standard of Table 21), Echinochloa curs-galli (L.) Beauv. Var. crus-galli [3]: 5
- herbicidal effect (index per standard of Table 21), Setaria viridis (L.) Beauv. [4]: 5

SMILES: CC1(C)CC(S(=O)(=O)Cc2c(C(F)(F)F)nn(-c3ccccc3)c2C(F)(F)F)=NO1 [3-0153]
- Herbicidal effect index, Echinochloa oryzicola Vasing [1]: 5
- Herbicidal effect index, Monochoria vaginalis (Burm. F.) Presl var. plantaginea (Roxb.) Solms-Laub. [2]: 5
- herbicidal effect (index per standard of Table 21), Echinochloa curs-galli (L.) Beauv. Var. crus-galli [3]: 5
- herbicidal effect (index per standard of Table 21), Setaria viridis (L.) Beauv. [4]: 5

SMILES: Cc1c(CS(=O)(=O)C2=NOC(C)(C)C2)oc2ccccc12 [10-0017]
- Herbicidal effect index, Echinochloa oryzicola Vasing [1]: 5
- Herbicidal effect index, Monochoria vaginalis (Burm. F.) Presl var. plantaginea (Roxb.) Solms-Laub. [2]: 5
- herbicidal effect (index per standard of Table 21), Echinochloa curs-galli (L.) Beauv. Var. crus-galli [3]: 5
- herbicidal effect (index per standard of Table 21), Setaria viridis (L.) Beauv. [4]: 5

SMILES: CC1(C)CC(S(=O)(=O)Cc2c(Cl)nn(CC#N)c2C(F)(F)F)=NO1 [3-0135]
- Herbicidal effect index, Echinochloa oryzicola Vasing [1]: 5
- Herbicidal effect index, Monochoria vaginalis (Burm. F.) Presl var. plantaginea (Roxb.) Solms-Laub. [2]: 5
- herbicidal effect (index per standard of Table 21), Echinochloa curs-galli (L.) Beauv. Var. crus-galli [3]: 5
- herbicidal effect (index per standard of Table 21), Setaria viridis (L.) Beauv. [4]: 5

SMILES: CCC1(C)CC(S(=O)(=O)Cc2c(C(F)(F)F)nn(C)c2Cl)=NO1 (stereo not drawn) [3-0180]
- Herbicidal effect index, Echinochloa oryzicola Vasing [1]: 5
- Herbicidal effect index, Monochoria vaginalis (Burm. F.) Presl var. plantaginea (Roxb.) Solms-Laub. [2]: 5
- herbicidal effect (index per standard of Table 21), Echinochloa curs-galli (L.) Beauv. Var. crus-galli [3]: 5
- herbicidal effect (index per standard of Table 21), Setaria viridis (L.) Beauv. [4]: 5

SMILES: CC1(C)CC(S(=O)(=O)Cc2c(Cl)nn(CS(C)(=O)=O)c2C(F)(F)F)=NO1 [3-0131]
- Herbicidal effect index, Echinochloa oryzicola Vasing [1]: 5
- Herbicidal effect index, Monochoria vaginalis (Burm. F.) Presl var. plantaginea (Roxb.) Solms-Laub. [2]: 5
- herbicidal effect (index per standard of Table 21), Echinochloa curs-galli (L.) Beauv. Var. crus-galli [3]: 5
- herbicidal effect (index per standard of Table 21), Setaria viridis (L.) Beauv. [4]: 5

SMILES: Cc1onc(-c2ccccc2)c1CS(=O)(=O)C1=NOC(C)(C)C1 [4-0007]
- Herbicidal effect index, Echinochloa oryzicola Vasing [1]: 5
- Herbicidal effect index, Monochoria vaginalis (Burm. F.) Presl var. plantaginea (Roxb.) Solms-Laub. [2]: 5
- herbicidal effect (index per standard of Table 21), Echinochloa curs-galli (L.) Beauv. Var. crus-galli [3]: 5
- herbicidal effect (index per standard of Table 21), Setaria viridis (L.) Beauv. [4]: 5

SMILES: Cc1ccc(CS(=O)(=O)C2=NOC(C)(C)C2)s1 [1-0003]
- Herbicidal effect index, Echinochloa oryzicola Vasing [1]: 5
- Herbicidal effect index, Monochoria vaginalis (Burm. F.) Presl var. plantaginea (Roxb.) Solms-Laub. [2]: 5
- herbicidal effect (index per standard of Table 21), Echinochloa curs-galli (L.) Beauv. Var. crus-galli [3]: 5
- herbicidal effect (index per standard of Table 21), Setaria viridis (L.) Beauv. [4]: 5

SMILES: Cn1nc(Cl)c(CS(=O)(=O)C2=NOC(C)(C)C2)c1C(F)(F)F [3-0040]
- Herbicidal effect index, Echinochloa oryzicola Vasing [1]: 5
- Herbicidal effect index, Monochoria vaginalis (Burm. F.) Presl var. plantaginea (Roxb.) Solms-Laub. [2]: 5
- herbicidal effect (index per standard of Table 21), Echinochloa curs-galli (L.) Beauv. Var. crus-galli [3]: 5
- herbicidal effect (index per standard of Table 21), Setaria viridis (L.) Beauv. [4]: 5

SMILES: CC1(C)CC(S(=O)(=O)Cc2nc(-c3ccccc3)no2)=NO1 [9-0006]
- Herbicidal effect index, Echinochloa oryzicola Vasing [1]: 5
- Herbicidal effect index, Monochoria vaginalis (Burm. F.) Presl var. plantaginea (Roxb.) Solms-Laub. [2]: 5
- herbicidal effect (index per standard of Table 21), Echinochloa curs-galli (L.) Beauv. Var. crus-galli [3]: 5
- herbicidal effect (index per standard of Table 21), Setaria viridis (L.) Beauv. [4]: 4

SMILES: CC1(C)CC(S(=O)(=O)Cc2c(C(F)(F)F)nn(C3CCCCC3)c2Cl)=NO1 [3-0091]
- Herbicidal effect index, Echinochloa oryzicola Vasing [1]: 5
- Herbicidal effect index, Monochoria vaginalis (Burm. F.) Presl var. plantaginea (Roxb.) Solms-Laub. [2]: 5
- herbicidal effect (index per standard of Table 21), Echinochloa curs-galli (L.) Beauv. Var. crus-galli [3]: 5
- herbicidal effect (index per standard of Table 21), Setaria viridis (L.) Beauv. [4]: 5

SMILES: CC1(C)CC(S(=O)(=O)Cc2c(Cl)nn(CC(F)(F)F)c2C(F)(F)F)=NO1 [3-0117]
- Herbicidal effect index, Echinochloa oryzicola Vasing [1]: 5
- Herbicidal effect index, Monochoria vaginalis (Burm. F.) Presl var. plantaginea (Roxb.) Solms-Laub. [2]: 5
- herbicidal effect (index per standard of Table 21), Echinochloa curs-galli (L.) Beauv. Var. crus-galli [3]: 5
- herbicidal effect (index per standard of Table 21), Setaria viridis (L.) Beauv. [4]: 5

SMILES: CCOc1c(CS(=O)(=O)C2=NOC(C)(C)C2)c(C(F)(F)F)nn1-c1ccccc1 [3-0156]
- Herbicidal effect index, Echinochloa oryzicola Vasing [1]: 5
- Herbicidal effect index, Monochoria vaginalis (Burm. F.) Presl var. plantaginea (Roxb.) Solms-Laub. [2]: 5
- herbicidal effect (index per standard of Table 21), Echinochloa curs-galli (L.) Beauv. Var. crus-galli [3]: 5
- herbicidal effect (index per standard of Table 21), Setaria viridis (L.) Beauv. [4]: 5

SMILES: CC1(C)CC(S(=O)(=O)Cc2nn(-c3ccccc3)cc2OC(F)F)=NO1 [6-0003]
- Herbicidal effect index, Echinochloa oryzicola Vasing [1]: 5
- Herbicidal effect index, Monochoria vaginalis (Burm. F.) Presl var. plantaginea (Roxb.) Solms-Laub. [2]: 5
- herbicidal effect (index per standard of Table 21), Echinochloa curs-galli (L.) Beauv. Var. crus-galli [3]: 5
- herbicidal effect (index per standard of Table 21), Setaria viridis (L.) Beauv. [4]: 5

SMILES: CCOc1snc(C)c1CS(=O)(=O)C1=NOC(C)(C)C1 [4-0008]
- Herbicidal effect index, Echinochloa oryzicola Vasing [1]: 5
- Herbicidal effect index, Monochoria vaginalis (Burm. F.) Presl var. plantaginea (Roxb.) Solms-Laub. [2]: 5
- herbicidal effect (index per standard of Table 21), Echinochloa curs-galli (L.) Beauv. Var. crus-galli [3]: 5
- herbicidal effect (index per standard of Table 21), Setaria viridis (L.) Beauv. [4]: 5

SMILES: CC1(C)CC(S(=O)(=O)Cc2ccc[n+]([O-])c2)=NO1 [7-0004]
- Herbicidal effect index, Echinochloa oryzicola Vasing [1]: 5
- Herbicidal effect index, Monochoria vaginalis (Burm. F.) Presl var. plantaginea (Roxb.) Solms-Laub. [2]: 5
- herbicidal effect (index per standard of Table 21), Echinochloa curs-galli (L.) Beauv. Var. crus-galli [3]: 5
- herbicidal effect (index per standard of Table 21), Setaria viridis (L.) Beauv. [4]: 4

SMILES: COc1cc(OC)nc(-n2nc(C(F)(F)F)c(CS(=O)(=O)C3=NOC(C)(C)C3)c2Cl)n1 [3-0174]
- Herbicidal effect index, Echinochloa oryzicola Vasing [1]: 5
- Herbicidal effect index, Monochoria vaginalis (Burm. F.) Presl var. plantaginea (Roxb.) Solms-Laub. [2]: 5
- herbicidal effect (index per standard of Table 21), Echinochloa curs-galli (L.) Beauv. Var. crus-galli [3]: 5
- herbicidal effect (index per standard of Table 21), Setaria viridis (L.) Beauv. [4]: 5

SMILES: CCOCCn1nc(Cl)c(CS(=O)(=O)C2=NOC(C)(C)C2)c1C(F)(F)F [3-0127]
- Herbicidal effect index, Echinochloa oryzicola Vasing [1]: 5
- Herbicidal effect index, Monochoria vaginalis (Burm. F.) Presl var. plantaginea (Roxb.) Solms-Laub. [2]: 5
- herbicidal effect (index per standard of Table 21), Echinochloa curs-galli (L.) Beauv. Var. crus-galli [3]: 5
- herbicidal effect (index per standard of Table 21), Setaria viridis (L.) Beauv. [4]: 5
